Tests used:
[1] = biological target: T1, Prostaglandin G/H synthase 1 (Ovis aries) (UniProt P05979); experiment: Inhibition of ovine COX1 assessed as reduction in PGF2alpha formation at 10 uM incubated for 18 hrs by enzyme immunoassay
T1 sequence (whole entry): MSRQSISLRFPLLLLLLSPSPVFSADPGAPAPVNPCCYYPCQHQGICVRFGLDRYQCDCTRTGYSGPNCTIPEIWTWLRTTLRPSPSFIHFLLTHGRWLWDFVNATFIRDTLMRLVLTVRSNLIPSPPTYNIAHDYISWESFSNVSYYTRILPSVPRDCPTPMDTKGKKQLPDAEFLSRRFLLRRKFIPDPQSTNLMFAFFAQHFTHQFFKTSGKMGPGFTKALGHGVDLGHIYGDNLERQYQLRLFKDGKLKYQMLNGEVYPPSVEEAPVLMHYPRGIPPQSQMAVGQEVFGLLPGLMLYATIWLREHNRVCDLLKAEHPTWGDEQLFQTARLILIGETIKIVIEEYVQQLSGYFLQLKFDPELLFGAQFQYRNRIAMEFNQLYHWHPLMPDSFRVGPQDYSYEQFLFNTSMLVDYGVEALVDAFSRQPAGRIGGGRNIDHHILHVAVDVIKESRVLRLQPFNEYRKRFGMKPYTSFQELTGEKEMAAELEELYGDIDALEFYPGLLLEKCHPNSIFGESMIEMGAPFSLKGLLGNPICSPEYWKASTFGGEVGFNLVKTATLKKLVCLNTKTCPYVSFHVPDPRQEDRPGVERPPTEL

[2] = biological target: T2, Prostaglandin G/H synthase 1 (Ovis aries, UniProt P05979); experiment: Inhibition of ovine COX1 assessed as reduction in PGF2alpha formation incubated for 18 hrs by enzyme immunoassay
T2 sequence (P05979 whole entry): T1 sequence (whole entry)

Rattus norvegicus [3] = experiment: Anti-inflammatory activity in Sprague-Dawley rat model of carrageenan-induced paw edema assessed as inhibition of paw edema volume at 150 umol/kg, po dosed 1 hr before carrageenan challenge and measured 1 hr post carrageenan challenge; assay type: functional
Rattus norvegicus [4] = experiment: Anti-inflammatory activity in Sprague-Dawley rat model of carrageenan-induced paw edema assessed as inhibition of paw edema volume at 150 umol/kg, po dosed 1 hr before carrageenan challenge and measured 3 hrs post carrageenan challenge; assay type: functional
Rattus norvegicus [5] = experiment: Anti-inflammatory activity in Sprague-Dawley rat model of carrageenan-induced paw edema assessed as inhibition of paw edema volume at 150 umol/kg, po dosed 1 hr before carrageenan challenge and measured 5 hrs post carrageenan challenge; assay type: functional

## Cc1nn(-c2ccc(C(F)(F)F)cc2)c2c1c(=O)oc1ccc(Cl)cc12
[1]
  inhibition: 33.2%
[2]
  IC50: > 30 µM
Rattus norvegicus [3]
  inhibition in vivo at 150 µmol/kg: 23.3%
Rattus norvegicus [4]
  inhibition in vivo at 150 µmol/kg: 36.1%
Rattus norvegicus [5]
  inhibition in vivo at 150 µmol/kg: 57.8%

## Cc1ccc(C)c(-n2nc(C)c3c(=O)oc4ccccc4c32)c1
[1]
  inhibition: 21.3%

## COc1ccc2c(c1)oc(=O)c1c(C)nn(-c3ccccc3C(F)(F)F)c12
[1]
  inhibition: 38.2%

## Cc1nn(-c2ccc(Br)cc2)c2c1c(=O)oc1ccccc12
[1]
  inhibition: 47.5%
[2]
  IC50: > 30 µM
Rattus norvegicus [3]
  inhibition in vivo at 150 µmol/kg: 14.2%
Rattus norvegicus [4]
  inhibition in vivo at 150 µmol/kg: 27.8%
Rattus norvegicus [5]
  inhibition in vivo at 150 µmol/kg: 37%

## Cc1nn(-c2ccccc2C(F)(F)F)c2c1c(=O)oc1ccccc12
[1]
  inhibition: 34.6%

## Cc1nn(-c2ccccc2)c2c1c(=O)oc1ccccc12
[1]
  inhibition: 48.1%
[2]
  IC50: > 30 µM
Rattus norvegicus [3]
  inhibition in vivo at 150 µmol/kg: 19.3%
Rattus norvegicus [4]
  inhibition in vivo at 150 µmol/kg: 30.1%
Rattus norvegicus [5]
  inhibition in vivo at 150 µmol/kg: 38.2%

## Cc1nn(-c2ccc(Cl)cc2Cl)c2c1c(=O)oc1ccccc12
[1]
  inhibition: 30.5%

## Cc1ccc(C)c(-n2nc(C)c3c(=O)oc4ccc(Cl)cc4c32)c1
[1]
  inhibition: 39.2%

## Cc1ccc(-c2cc(C(F)(F)F)nn2-c2ccc(S(N)(=O)=O)cc2)cc1 [CELECOXIB]
Rattus norvegicus [3]
  inhibition in vivo at 150 µmol/kg: 24.4%
Rattus norvegicus [4]
  inhibition in vivo at 150 µmol/kg: 38.8%
Rattus norvegicus [5]
  inhibition in vivo at 150 µmol/kg: 51.4%

## COc1ccc2c(c1)oc(=O)c1c(C)nn(-c3cc(C)ccc3C)c12
[1]
  inhibition: 39.5%

## Cc1nn(-c2ccc(Cl)cc2)c2c1c(=O)oc1ccccc12
[1]
  inhibition: 43.7%
[2]
  IC50: > 30 µM
Rattus norvegicus [3]
  inhibition in vivo at 150 µmol/kg: 21.3%
Rattus norvegicus [4]
  inhibition in vivo at 150 µmol/kg: 35.2%
Rattus norvegicus [5]
  inhibition in vivo at 150 µmol/kg: 49.4%

## Cc1nn(-c2ccc(C(F)(F)F)cc2)c2c1c(=O)oc1ccccc12
[1]
  inhibition: 34.3%
[2]
  IC50: > 30 µM
Rattus norvegicus [3]
  inhibition in vivo at 150 µmol/kg: 27.6%
Rattus norvegicus [4]
  inhibition in vivo at 150 µmol/kg: 40.4%
Rattus norvegicus [5]
  inhibition in vivo at 150 µmol/kg: 59.9%

## COc1ccc2c(c1)oc(=O)c1c(C)nn(-c3ccc(Br)cc3)c12
[1]
  inhibition: 27.3%

## Cc1nn(-c2ccccc2)c2c1c(=O)oc1ccc(Cl)cc12
[1]
  inhibition: 43.8%

## COc1ccc2c(c1)oc(=O)c1c(C)nn(-c3ccc(F)cc3)c12
[1]
  inhibition: 34.8%

## COc1ccc2c(c1)oc(=O)c1c(C)nn(-c3ccc(Cl)cc3)c12
[1]
  inhibition: 34.8%

## COc1ccc2c(c1)oc(=O)c1c(C)nn(-c3ccccc3)c12
[1]
  inhibition: 43.2%

## Cc1nn(-c2ccccc2)c2c1c(=O)oc1ccc(Br)cc12
[1]
  inhibition: 54.2%

## Cc1nn(-c2ccc(F)cc2)c2c1c(=O)oc1ccccc12
[1]
  inhibition: 28.3%
[2]
  IC50: > 30 µM
Rattus norvegicus [3]
  inhibition in vivo at 150 µmol/kg: 24.6%
Rattus norvegicus [4]
  inhibition in vivo at 150 µmol/kg: 39.8%
Rattus norvegicus [5]
  inhibition in vivo at 150 µmol/kg: 55.6%

## COc1ccc2c(c1)oc(=O)c1c(C)nn(-c3ccc(C(F)(F)F)cc3)c12
[1]
  inhibition: 33.2%
[2]
  IC50: > 30 µM
Rattus norvegicus [3]
  inhibition in vivo at 150 µmol/kg: 21.7%
Rattus norvegicus [4]
  inhibition in vivo at 150 µmol/kg: 32.2%
Rattus norvegicus [5]
  inhibition in vivo at 150 µmol/kg: 43.7%

— ChEMBL document CHEMBL3352727, “Synthesis, biological evaluation and docking analysis of 3-methyl-1-phenylchromeno[4,3-c]pyrazol-4(1H)-ones as potential cyclooxygenase-2 (COX-2) inhibitors” (Bioorg Med Chem Lett, 2014)
